Consider ten molecules from ChEMBL document CHEMBL1129375, “Design and synthesis of a series of non-peptide high-affinity human corticotropin-releasing factor1 receptor antagonists” (J Med Chem, 1996).

The target in experiment [1] is T1, Corticotropin-releasing factor receptor 1 (Homo sapiens, UniProt P34998).
T1 sequence (P34998 whole entry): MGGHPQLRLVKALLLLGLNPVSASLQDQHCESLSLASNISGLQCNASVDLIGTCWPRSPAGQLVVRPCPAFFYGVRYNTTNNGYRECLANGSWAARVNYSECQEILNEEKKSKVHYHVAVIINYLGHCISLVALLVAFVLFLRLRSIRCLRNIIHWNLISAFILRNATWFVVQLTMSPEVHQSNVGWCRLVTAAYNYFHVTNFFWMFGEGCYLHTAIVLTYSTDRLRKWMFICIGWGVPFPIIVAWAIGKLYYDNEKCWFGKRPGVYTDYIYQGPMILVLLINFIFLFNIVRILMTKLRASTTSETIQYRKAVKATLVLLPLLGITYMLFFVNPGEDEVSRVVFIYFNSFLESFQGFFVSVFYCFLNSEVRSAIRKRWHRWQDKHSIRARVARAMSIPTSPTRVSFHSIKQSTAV
Nature of the experiment: Inhibition of [125I]CRF binding to human Corticotropin releasing factor receptor 1 tested at 6-12 doses.

For experiment [2], the species on record is Homo sapiens. In words: Compound was evaluated for the inhibition of CRF-stimulated cyclic adenosine monophosphate production. Type of experiment: functional, organism-based.

What is called Ki is a dissociation constant, usually derived from enzyme kinetics or from competition with a known ligand. Read a high Ki as a looser hold on the target. For the molecule `CCCN(CC1CC1)c1cc(Nc2c(Cl)cc(Cl)cc2Cl)ncn1`, the Ki in experiment [1] is above 10000 nM.
Still for that read-out and setting: with `CCCN(CC1CC1)c1nc(C)cc(Nc2c(Cl)cc(Cl)cc2Cl)n1` the figure was above 10000 nM; with `CCCN(CC1CC1)c1cc(C)nc(Nc2c(Cl)cc(Cl)cc2Cl)n1`, 70 nM.
In the case of `CCCN(CC1CC1)c1nc(C)nc(Nc2c(Cl)cc(Cl)cc2Cl)c1Br`, affinity in experiment [1] was put at a Ki of 2 nM.
`CCCN(CC1CC1)c1nc(C)nc(Nc2c(Cl)cc(Cl)cc2Cl)c1C` came in with a Ki in experiment [1] of 2.3 nM.
The same measure, in the same setting: with `CCCN(CC1CC1)c1nc(C)nc(N(C)c2c(Cl)cc(Cl)cc2Cl)c1C` the figure was 150 nM.
The IC50 is the concentration at which inhibition is half-maximal. A lower IC50 goes with greater potency in that assay. In experiment [1], `CCCN(CC1CC1)c1nc(C)nc(Nc2c(Cl)cc(Cl)cc2Cl)c1Cl` yielded a Ki of 1.7 nM. The molecule further showed an IC50 in experiment [2] of 100 nM.
On the same counts, the results for `CCCN(CCC)c1nc(C)nc(Nc2c(Cl)cc(Cl)cc2Cl)c1C` are 2.5 nM and 250 nM.
In turn, `CCCN(CC1CC1)c1cc(Nc2c(Cl)cc(Cl)cc2Cl)nc(C)n1` came in with an inhibition constant Ki in experiment [1] of 30 nM. This molecule also registered an IC50 in experiment [2] of 3700 nM.
Take `CCCN(CC1CC1)c1nc(C)nc(Nc2c(Cl)cc(Cl)cc2Cl)c1CC`: in experiment [1], the affinity, expressed as Ki, was 3.8 nM.
